From patent publication US5916905A, “2,3-substituted pyridines for the treatment of inflammation” (G. D. Searle & Co., priority 1997, dated 1999)
pIC50: −log10 of the molar value.

Assays:
[1] = molecular target: T1, COX-2 (Homo sapiens, UniProt P35354); assay: COX-2 activity in vitro, recombinant human enzyme (PGE2 ELISA); type: biochemical; settings: human (h); 10 μM arachidonic acid, 10-20 min pre-incubation; read-out: COX-2 ID50
T1 construct: A 2.0 kb fragment containing the coding region; made in house; host or cells: SF9 insect cells (baculovirus, pVL1393)
T1 sequence (P35354 18-604): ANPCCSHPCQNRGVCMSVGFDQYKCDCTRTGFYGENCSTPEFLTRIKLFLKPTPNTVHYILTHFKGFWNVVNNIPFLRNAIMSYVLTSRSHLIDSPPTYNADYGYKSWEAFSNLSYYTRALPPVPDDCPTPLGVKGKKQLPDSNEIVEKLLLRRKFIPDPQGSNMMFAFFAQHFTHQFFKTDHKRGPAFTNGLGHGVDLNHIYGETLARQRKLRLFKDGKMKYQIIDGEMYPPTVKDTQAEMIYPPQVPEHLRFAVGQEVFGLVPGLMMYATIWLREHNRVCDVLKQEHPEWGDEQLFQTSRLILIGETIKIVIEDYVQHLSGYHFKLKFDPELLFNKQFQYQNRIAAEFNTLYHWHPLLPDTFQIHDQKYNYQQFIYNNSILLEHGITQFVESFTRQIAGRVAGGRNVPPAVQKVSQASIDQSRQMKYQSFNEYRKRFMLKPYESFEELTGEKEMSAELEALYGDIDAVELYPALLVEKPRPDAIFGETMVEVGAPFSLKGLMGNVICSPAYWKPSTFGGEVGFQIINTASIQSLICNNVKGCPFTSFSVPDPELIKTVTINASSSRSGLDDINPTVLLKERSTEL
Experimental: (§1) The COX-2 inhibition activity of the compounds of this invention illustrated in the Examples was determined by the following methods.
(§2) Recombinant COX-1 and COX-2 were prepared as described by Gierse et al, [J. Biochem., 305, 479-84 (1995)]. A 2.0 kb fragment containing the coding region of either human or murine COX-1 or human or murine COX-2 was cloned into a BamH1 site of the baculovirus transfer vector pVL1393 (Invitrogen) to generate the baculovirus transfer vectors for COX-1 and COX-2 in a manner similar to the method of D. R. O'Reilly et al (Baculovirus Expression Vectors: A Laboratory Manual (1992)). Recombinant baculoviruses were isolated by transfecting 4 μg of baculovirus transfer vector DNA into SF9 insect cells (2×10^8) along with 200 ng of linearized baculovirus plasmid DNA by the calcium phosphate method. See M. D. Summers and G. E. Smith, A Manual of Methods for Baculovirus Vectors and Insect Cell Culture Procedures, Texas Agric. Exp. Station Bull. 1555 (1987). Recombinant viruses were purified by three rounds of plaque purification and high titer (10^7 -10^8 pfu/ml) stocks of virus were prepared. For large scale production, SF9 insect cells were infected in 10 liter fermentors (0.5×10^6 /ml) with the recombinant baculovirus stock such that the multiplicity of infection was 0.1. After 72 hours the cells were centrifuged and the cell pellet homogenized in Tris/Sucrose (50 mM: 25%, pH 8.0) containing 1% 3-[(3-cholamidopropyl)dimethylammonio]-1-propanesulfonate (CHAPS). The homogenate was centrifuged at 10,000×G for 30 minutes, and the resultant supernatant was stored at -80° C. before being assayed for COX activity.
(§3) b. Assay for COX-1 and COX-2 activity COX activity was assayed as PGE2 formed/μg protein/time using an ELISA to detect the prostaglandin released. CHAPS-solubilized insect cell membranes containing the appropriate COX enzyme were incubated in a potassium phosphate buffer (50 mM, pH 8.0) containing epinephrine, phenol, and heme with the addition of arachidonic acid (10 μM). Compounds were pre-incubated with the enzyme for 10-20 minutes prior to the addition of arachidonic acid. Any reaction between the arachidonic acid and the enzyme was stopped after ten minutes at 37° C./room temperature by transferring 40 μl of reaction mix into 160 μl ELISA buffer and 25 μM indomethacin. The PGE2 formed was measured by standard ELISA technology (Cayman Chemical).

[2] = molecular target: T2, COX-1 (Homo sapiens, UniProt P23219); assay: COX-1 activity in vitro, recombinant human enzyme (PGE2 ELISA); type: biochemical; settings: human (h); 10 μM arachidonic acid, 10-20 min pre-incubation; read-out: COX-1 ID50
T2 construct: A 2.0 kb fragment containing the coding region; made in house; host or cells: SF9 insect cells (baculovirus, pVL1393)
Experimental: as §1, §2, §3

T2 sequence (P23219 24-599): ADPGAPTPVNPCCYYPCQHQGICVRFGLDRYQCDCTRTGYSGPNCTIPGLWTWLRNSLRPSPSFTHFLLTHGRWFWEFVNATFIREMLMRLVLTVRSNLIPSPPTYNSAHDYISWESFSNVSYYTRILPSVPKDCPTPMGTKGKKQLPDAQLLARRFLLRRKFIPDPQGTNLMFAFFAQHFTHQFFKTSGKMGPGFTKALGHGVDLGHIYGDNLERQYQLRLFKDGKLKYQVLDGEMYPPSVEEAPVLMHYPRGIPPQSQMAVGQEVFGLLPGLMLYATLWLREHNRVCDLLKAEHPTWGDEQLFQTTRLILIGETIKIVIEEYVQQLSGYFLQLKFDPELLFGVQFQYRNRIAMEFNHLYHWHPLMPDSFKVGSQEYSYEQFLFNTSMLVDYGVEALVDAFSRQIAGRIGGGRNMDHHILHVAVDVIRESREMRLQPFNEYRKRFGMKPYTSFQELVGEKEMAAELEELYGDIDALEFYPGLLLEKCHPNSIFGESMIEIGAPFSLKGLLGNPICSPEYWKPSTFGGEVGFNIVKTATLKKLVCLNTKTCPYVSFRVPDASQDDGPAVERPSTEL

Row | Structure (SMILES) | pIC50 [1] | pIC50 [2]
1 | CCCCOc1nc(-c2ccc(F)cc2)c(-c2ccc(S(C)(=O)=O)cc2)cc1C(C)O (racemic) [Example 43, (+/-) 2-Butoxy-6-(4-fluorophenyl)-α-methyl-5-[4-(methylsulfonyl)phenyl]pyridine-3-methanol] | 7.00 | 4.55
2 | CCCCOc1nc(-c2ccc(F)cc2)c(-c2ccc(S(C)(=O)=O)cc2)cc1C(C)OC(=O)CCC (racemic) [Example 44, (+/-) 1-[2-Butoxy-6-(4-fluorophenyl)-5-[4-(methylsulfonyl)phenyl]pyridin-3-yl]ethylbutanoate] | 5.70 | < 4.00
3 | CS(=O)(=O)c1ccc(-c2ccc(Cl)nc2-c2ccc(F)cc2)cc1 [Example 1, 2-chloro-6-(4-fluorophenyl)-5-[4-(methylsulfonyl)phenyl]pyridine] | 4.54 | < 4.00
4 | CSc1ccc(-c2nc(SC)ccc2-c2ccc(S(C)(=O)=O)cc2)cc1 [Example 5, 5-[4-(Methylsulfonyl)phenyl]-2-methylthio-6-[4-(methylthio)phenyl]pyridine] | > 7.00 | < 4.00
5 | CS(=O)(=O)c1ccc(-c2ccc(N=[N+]=[N-])nc2-c2ccc(F)cc2)cc1 [Example 6, 2-Azido-6-(4-fluorophenyl)-5-[4-(methylsulfonyl)phenyl]pyridine] | 5.70 | < 4.00
6 | CCCOc1nc(-c2ccc(F)cc2)c(-c2ccc(S(C)(=O)=O)cc2)cc1C#N [Example 10, 6-(4-Fluorophenyl)-5-[4-(methylsulfonyl)phenyl]-2-propoxypyridine-3-carbonitrile] | 6.70 | < 4.00
7 | COc1ccc(-c2nc(OC)c(C#N)cc2-c2ccc(S(C)(=O)=O)cc2)cc1 [Example 11, 2-Methoxy-6-(4-methoxyphenyl)-5-[4-(methylsulfonyl)phenyl]pyridine-3-carbonitrile] | 6.40 | < 4.00
8 | CN(C)c1nc(-c2ccc(F)cc2)c(-c2ccc(S(C)(=O)=O)cc2)cc1C#N [Example 12, 2-(Dimethylamino)-6-(4-fluorophenyl)-5-[4-(methylsulfonyl)phenyl]pyridine-3-carbonitrile] | 6.22 | < 4.00
9 | CSc1nc(-c2ccc(F)cc2)c(-c2ccc(S(C)(=O)=O)cc2)cc1C#N [Example 13, 6-(4-Fluorophenyl)-5-[4-(methylsulfonyl)phenyl]-2-(methylthio)pyridine-3-carbonitrile] | 6.70 | < 4.00
10 | CCCCOc1nc(-c2ccc(F)cc2)c(-c2ccc(S(C)(=O)=O)cc2)cc1C#N [Example 14, 2-Butoxy-6-(4-fluorophenyl)-5-[4-(methylsulfonyl)phenyl]pyridine-3-carbonitrile] | > 7.00 | < 4.00
11 | CS(=O)(=O)c1ccc(-c2cc(C#N)c(OCc3ccccc3)nc2-c2ccc(F)cc2)cc1 [Example 15, 6-(4-Fluorophenyl)-5-[4-(methylsulfonyl)phenyl]-2-(phenylmethoxy)pyridine-3-carbonitrile] | > 7.00 | < 4.00
12 | CNc1nc(-c2ccc(F)cc2)c(-c2ccc(S(C)(=O)=O)cc2)cc1C#N [Example 16, 6-(4-Fluorophenyl)-2-(methylamino)-5-[4-(methylsulfonyl)phenyl]pyridine-3-carbonitrile] | 5.64 | < 4.00
13 | C=CCOc1nc(-c2ccc(F)cc2)c(-c2ccc(S(C)(=O)=O)cc2)cc1C#N [Example 17, 6-(4-Fluorophenyl)-5-[4-(methylsulfonyl)phenyl]-2-[(2-propenyl)oxy]pyridine-3-carbonitrile] | > 7.00 | < 4.00
14 | CCCCCCOc1nc(-c2ccc(F)cc2)c(-c2ccc(S(C)(=O)=O)cc2)cc1C#N [Example 18, 6-(4-Fluorophenyl)-2-hexyloxy-5-[4-(methylsulfonyl)phenyl]pyridine-3-carbonitrile] | 6.70 | < 4.00
15 | CCCCCOc1nc(-c2ccc(F)cc2)c(-c2ccc(S(C)(=O)=O)cc2)cc1C#N [Example 24, 6-(4-Fluorophenyl)-5-[4-(methylsulfonyl)phenyl]-2-pentoxypyridine-3-carbonitrile] | > 7.00 | < 4.00
16 | CC(C)=CCOc1nc(-c2ccc(F)cc2)c(-c2ccc(S(C)(=O)=O)cc2)cc1C#N [Example 25] | 7.00 | < 4.00
17 | CS(=O)(=O)c1ccc(-c2cc(C#N)c(OCCCC(F)(F)F)nc2-c2ccc(F)cc2)cc1 [Example 27, 6-(4-Fluorophenyl)-5-[4-(methylsulfonyl)phenyl]-2-(4,4,4-trifluorobutoxy)pyridine-3-carbonitrile] | 6.70 | < 4.00
18 | CCCCOc1nc(-c2ccc(F)cc2)c(-c2ccc(S(N)(=O)=O)cc2)cc1C#N [Example 28, 4-[6-butoxy-4-cyano-2-(4-Fluorophenyl)-3-pyridine]benzenesulfonamide] | > 7.00 | 6.70
19 | CCCCOc1nc(-c2ccc(F)cc2)c(-c2ccc(S(C)(=O)=O)cc2)cc1CO [Example 29, 2-Butoxy-6-(4-fluorophenyl)-5-[4-(methylsulfonyl)phenyl]pyridine-3-methanol] | > 7.00 | < 4.00
20 | CCCCOc1nc(-c2ccc(F)cc2)c(-c2ccc(S(C)(=O)=O)cc2)cc1C(F)F [Example 31, 2-Butoxy-3-difluoromethyl-6-(4-fluorophenyl)-5-[4-(methylsulfonyl)phenyl]pyridine] | > 7.00 | < 4.00
21 | CCCCOc1nc(-c2ccc(F)cc2)c(-c2ccc(S(C)(=O)=O)cc2)cc1CN [Example 32, 2-Butoxy-6-(4-fluorophenyl)-5-[4-(methylsulfonyl)phenyl]pyridine-3-methylamine] | 5.80 | < 4.00
22 | CCCCOc1nc(-c2ccc(F)cc2)c(-c2ccc(S(C)(=O)=O)cc2)cc1CNC(C)=O [Example 33] | 5.85 | < 4.00
23 | CCCCOc1nc(-c2ccc(F)cc2)c(-c2ccc(S(C)(=O)=O)cc2)cc1CN(C)C [Example 37, 2-Butoxy-6-(4-fluorophenyl)-N,N-dimethyl-5-[4-(methylsulfonyl)phenyl]pyridine-3-methanamine] | 6.10 | < 4.00
24 | CCCCOc1nc(-c2ccc(F)cc2)c(-c2ccc(S(C)(=O)=O)cc2)cc1COC(C)=O [Example 39, 2-Butoxy-6-(4-fluorophenyl)-5-[4-(methylsulfonyl)phenyl]pyridine-3-methanol, acetate] | 7.00 | < 4.00
25 | CCCCOc1nc(-c2ccc(F)cc2)c(-c2ccc(S(C)(=O)=O)cc2)cc1COC(=O)CCC [Example 40, [2-Butoxy-6-(4-fluorophenyl)-5-[4-(methylsulfonyl)phenyl]pyridin-3-yl]methylbutanoate] | 7.00 | < 4.00
26 | CCCCOc1nc(-c2ccc(F)cc2)c(-c2ccc(S(C)(=O)=O)cc2)cc1COC(=O)C(C)(C)C [Example 41, [2-Butoxy-6-(4-fluorophenyl)-5-[4-(methylsulfonyl)phenyl]pyridin-3-yl]methyl-2,2-propanoate] | < 4.00 | < 4.00
27 | CCCCOc1nc(-c2ccc(F)cc2)c(-c2ccc(S(C)(=O)=O)cc2)cc1CNC [Example 42, 2-Butoxy-6-(4-fluorophenyl)-N-methyl-5-[4-(methylsulfonyl)phenyl]pyridine-3-methanamine] | 5.52 | < 4.00
